Experimental data as given in patent US11965039B2, “Compstatin analogues and their medical uses” (priority 2018, dated 2024).
Starred links: 1 amine or outer side, 2 acyl side, 3 side chain; linkers in the order of their positions; H or OH if unused. Positions of bridges follow the written chain, without caps; N, C: chain ends. Non-standard residues stand in square brackets, D forms with d. Residues, ends and D or L forms follow the SMILES beside them. Groups on a side chain read outwards from the residue. *: point of attachment. C20 diacid = O=C(O)CCCCCCCCCCCCCCCCCCC(=O)*; Trp(1-Me) = Cn1cc(C[C@H](N)C(=O)O)c2ccccc21; C18 diacid = O=C(O)CCCCCCCCCCCCCCCCC(=O)*; C16 diacid = O=C(O)CCCCCCCCCCCCCCC(=O)*; γGlu = O=C(O)[C@H](CCC(=O)[*:2])N[*:1]; AEEA = NCCOCCOCC(=O)O; Aoc = NCCCCCCCC(=O)O; Sar = CNCC(=O)O

system: classical complement pathway; experiment: In vitro haemolysis assay (inhibition of classical complement pathway); assay type: cell-based, human; settings: human serum, sensitized sheep red blood cells; Table 3, given as upper bounds; read-out: IC50, inhibition of hemolysis
Summary of the method: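 Compound dilutions preincubated 15 min at room temperature with diluted human serum (titrated per batch for 70-90% maximal haemolysis), then antibody-sensitized sheep RBC (10^7/well) added for 30 min at 37 °C in Tris/casein buffer, pH 7.4. Stopped with EDTA; haemolysis read at 405 nm; IC50 by 4PL fit.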

SMILES	IC50
CC[C@H](C)[C@@H]1NC(=O)[C@@H](NC(=O)[C@H](Cc2ccccc2)NC(=O)[C@H](CCC(=O)O)NC(=O)[C@H](CO)NC(C)=O)CSSC[C@@H](C(=O)N(C)CC(=O)N[C@@H](CCC(=O)O)C(=O)NCC(=O)N[C@@H](CCC(=O)O)C(=O)NCCOCCOCC(=O)NCCOCCOCC(=O)N[C@@H](CCCCNC(=O)CC[C@H](NC(=O)CNC(=O)CC[C@H](NC(=O)CCCCCCCCCCCCCCCCCCC(=O)O)C(=O)O)C(=O)O)C(N)=O)NC(=O)[C@H](CCCNC(=N)N)NC(=O)[C@H](Cc2c[nH]cn2)NC(=O)[C@H](CCC(=O)O)NC(=O)CNC(=O)[C@H](Cc2c[nH]c3ccccc23)NC(=O)[C@H](CC(=O)O)NC(=O)[C@H](CCC(N)=O)NC(=O)[C@H](Cc2cn(C)c3ccccc23)NC1=O [Compound 128] (Ac-SEFCI[Trp(1-Me)]QDWGEHRC[Sar]EGE[AEEA][AEEA]K([γGlu-Gly-γGlu-C20 diacid])-NH2; disulfide 4-14)	< 100 nM
CC[C@H](C)[C@@H]1NC(=O)[C@@H](NC(=O)[C@H](Cc2ccccc2)NC(=O)[C@H](CCC(=O)O)NC(=O)[C@H](CO)NC(C)=O)CSSC[C@@H](C(=O)N(C)CC(=O)N[C@@H](CCC(=O)O)C(=O)NCC(=O)N[C@@H](CCC(=O)O)C(=O)NCC(=O)NCC(=O)NCC(=O)N[C@@H](CCCCNC(=O)CC[C@H](NC(=O)CNC(=O)CC[C@H](NC(=O)CCCCCCCCCCCCCCCCC(=O)O)C(=O)O)C(=O)O)C(N)=O)NC(=O)[C@H](CCCNC(=N)N)NC(=O)[C@H](Cc2c[nH]cn2)NC(=O)[C@H](CCC(=O)O)NC(=O)CNC(=O)[C@H](Cc2c[nH]c3ccccc23)NC(=O)[C@H](CC(=O)O)NC(=O)[C@H](CCC(N)=O)NC(=O)[C@H](Cc2cn(C)c3ccccc23)NC1=O [Compound 129] (Ac-SEFCI[Trp(1-Me)]QDWGEHRC[Sar]EGEGGGK([γGlu-Gly-γGlu-C18 diacid])-NH2; disulfide 4-14)	< 100 nM
CC[C@H](C)[C@@H]1NC(=O)[C@@H](NC(=O)[C@H](Cc2ccccc2)NC(=O)[C@H](CCC(=O)O)NC(=O)[C@H](CO)NC(C)=O)CSSC[C@@H](C(=O)N[C@H](C(=O)N[C@@H](CCC(=O)O)C(=O)NCC(=O)N[C@@H](CCC(=O)O)C(=O)NCC(=O)NCC(=O)NCC(=O)N[C@@H](CCCCNC(=O)CC[C@H](NC(=O)CNC(=O)CC[C@H](NC(=O)CCCCCCCCCCCCCCCCC(=O)O)C(=O)O)C(=O)O)C(N)=O)[C@@H](C)O)NC(=O)[C@H](CCCNC(=N)N)NC(=O)[C@H](Cc2c[nH]cn2)NC(=O)[C@H](CCC(=O)O)NC(=O)CNC(=O)[C@H](Cc2c[nH]c3ccccc23)NC(=O)[C@H](CC(=O)O)NC(=O)[C@H](CCC(N)=O)NC(=O)[C@H](Cc2cn(C)c3ccccc23)NC1=O [Compound 130] (Ac-SEFCI[Trp(1-Me)]QDWGEHRCTEGEGGGK([γGlu-Gly-γGlu-C18 diacid])-NH2; disulfide 4-14)	< 100 nM
CC[C@H](C)[C@@H]1NC(=O)[C@@H](NC(=O)[C@H](Cc2ccccc2)NC(=O)[C@H](CCC(=O)O)NC(=O)[C@H](CO)NC(C)=O)CSSC[C@@H](C(=O)N[C@H](C(=O)N[C@@H](CCC(=O)O)C(=O)NCC(=O)N[C@@H](CCC(=O)O)C(=O)NCC(=O)NCC(=O)NCC(=O)N[C@@H](CCCCNC(=O)CC[C@H](NC(=O)CNC(=O)CC[C@H](NC(=O)CCCCCCCCCCCCCCC(=O)O)C(=O)O)C(=O)O)C(N)=O)[C@@H](C)O)NC(=O)[C@H](CCCNC(=N)N)NC(=O)[C@H](Cc2c[nH]cn2)NC(=O)[C@H](CCC(=O)O)NC(=O)CNC(=O)[C@H](Cc2c[nH]c3ccccc23)NC(=O)[C@H](CC(=O)O)NC(=O)[C@H](CCC(N)=O)NC(=O)[C@H](Cc2cn(C)c3ccccc23)NC1=O [Compound 131] (Ac-SEFCI[Trp(1-Me)]QDWGEHRCTEGEGGGK([γGlu-Gly-γGlu-C16 diacid])-NH2; disulfide 4-14)	< 100 nM
CC[C@H](C)[C@@H]1NC(=O)[C@@H](NC(=O)[C@H](Cc2ccccc2)NC(=O)[C@H](CCC(=O)O)NC(=O)[C@H](CO)NC(C)=O)CSSC[C@@H](C(=O)N(C)CC(=O)N[C@@H](CCC(=O)O)C(=O)N[C@@H](CCCCN)C(=O)N[C@@H](CCC(=O)NCC(=O)NCC(=O)NCC(=O)N[C@@H](CCCCNC(=O)CC[C@H](NC(=O)CNC(=O)CC[C@H](NC(=O)CCCCCCCCCCCCCCCCC(=O)O)C(=O)O)C(=O)O)C(N)=O)C(=O)O)NC(=O)[C@H](CCCNC(=N)N)NC(=O)[C@H](Cc2c[nH]cn2)NC(=O)[C@H](CCC(=O)O)NC(=O)CNC(=O)[C@H](Cc2c[nH]c3ccccc23)NC(=O)[C@H](CC(=O)O)NC(=O)[C@H](CCC(N)=O)NC(=O)[C@H](Cc2cn(C)c3ccccc23)NC1=O [Compound 132] (Ac-SEFCI[Trp(1-Me)]QDWGEHRC[Sar]EK[γGlu]GGGK([γGlu-Gly-γGlu-C18 diacid])-NH2; disulfide 4-14)	< 100 nM
CC[C@H](C)[C@@H]1NC(=O)[C@@H](NC(=O)[C@H](Cc2ccccc2)NC(=O)[C@H](CCC(=O)O)NC(=O)[C@H](CO)NC(C)=O)CSSC[C@@H](C(=O)N[C@H](C(=O)N[C@@H](CCC(=O)O)C(=O)N[C@@H](CCCCN)C(=O)N[C@@H](CCC(=O)NCC(=O)NCC(=O)NCC(=O)N[C@@H](CCCCNC(=O)CC[C@H](NC(=O)CNC(=O)CC[C@H](NC(=O)CCCCCCCCCCCCCCCCC(=O)O)C(=O)O)C(=O)O)C(N)=O)C(=O)O)[C@@H](C)O)NC(=O)[C@H](CCCNC(=N)N)NC(=O)[C@H](Cc2c[nH]cn2)NC(=O)[C@H](CCC(=O)O)NC(=O)CNC(=O)[C@H](Cc2c[nH]c3ccccc23)NC(=O)[C@H](CC(=O)O)NC(=O)[C@H](CCC(N)=O)NC(=O)[C@H](Cc2cn(C)c3ccccc23)NC1=O [Compound 133] (Ac-SEFCI[Trp(1-Me)]QDWGEHRCTEK[γGlu]GGGK([γGlu-Gly-γGlu-C18 diacid])-NH2; disulfide 4-14)	< 100 nM
CC[C@H](C)[C@@H]1NC(=O)[C@@H](NC(=O)[C@H](Cc2ccccc2)NC(=O)[C@H](CCC(=O)O)NC(C)=O)CSSC[C@@H](C(=O)N[C@@H](CCC(=O)O)C(=O)NCC(=O)N[C@@H](CCC(=O)O)C(=O)N[C@@H](CCCCNC(=O)CC[C@H](NC(=O)CNC(=O)CC[C@H](NC(=O)CCCCCCCCCCCCCCCCC(=O)O)C(=O)O)C(=O)O)C(N)=O)NC(=O)[C@H](CCCNC(=N)N)NC(=O)[C@H](Cc2c[nH]cn2)NC(=O)[C@H](CCC(=O)O)NC(=O)CNC(=O)[C@H](Cc2c[nH]c3ccccc23)NC(=O)[C@H](CC(=O)O)NC(=O)[C@H](CCC(N)=O)NC(=O)[C@H](Cc2cn(C)c3ccccc23)NC1=O [Compound 134] (Ac-EFCI[Trp(1-Me)]QDWGEHRCEGEK([γGlu-Gly-γGlu-C18 diacid])-NH2; disulfide 3-13)	< 100 nM
CC[C@H](C)[C@@H]1NC(=O)[C@@H](NC(=O)[C@H](Cc2ccccc2)NC(=O)[C@H](CCC(=O)O)NC(=O)[C@H](CO)NC(C)=O)CSSC[C@@H](C(=O)N[C@H](C(=O)N[C@@H](CCC(=O)O)C(=O)NCC(=O)N[C@@H](CCC(=O)O)C(=O)NCCCCCCCC(=O)N[C@@H](CCCCNC(=O)CC[C@H](NC(=O)CNC(=O)CC[C@H](NC(=O)CCCCCCCCCCCCCCCCC(=O)O)C(=O)O)C(=O)O)C(N)=O)[C@@H](C)O)NC(=O)[C@H](CCCNC(=N)N)NC(=O)[C@H](Cc2c[nH]cn2)NC(=O)[C@H](CCC(=O)O)NC(=O)CNC(=O)[C@H](Cc2c[nH]c3ccccc23)NC(=O)[C@H](CC(=O)O)NC(=O)[C@H](CCC(N)=O)NC(=O)[C@H](Cc2cn(C)c3ccccc23)NC1=O [Compound 136] (Ac-SEFCI[Trp(1-Me)]QDWGEHRCTEGE[Aoc]K([γGlu-Gly-γGlu-C18 diacid])-NH2; disulfide 4-14)	< 100 nM
CC[C@H](C)[C@@H]1NC(=O)[C@@H](NC(=O)[C@H](Cc2ccccc2)NC(=O)[C@H](CCC(=O)O)NC(=O)[C@H](CO)NC(C)=O)CSSC[C@@H](C(=O)N[C@H](C(=O)N[C@@H](CCC(=O)O)C(=O)NCC(=O)N[C@@H](CCC(=O)O)C(=O)NCCCCCCCC(=O)N[C@@H](CCC(=O)O)C(=O)N[C@@H](CCCCNC(=O)CC[C@H](NC(=O)CNC(=O)CC[C@H](NC(=O)CCCCCCCCCCCCCCCCC(=O)O)C(=O)O)C(=O)O)C(N)=O)[C@@H](C)O)NC(=O)[C@H](CCCNC(=N)N)NC(=O)[C@H](Cc2c[nH]cn2)NC(=O)[C@H](CCC(=O)O)NC(=O)CNC(=O)[C@H](Cc2c[nH]c3ccccc23)NC(=O)[C@H](CC(=O)O)NC(=O)[C@H](CCC(N)=O)NC(=O)[C@H](Cc2cn(C)c3ccccc23)NC1=O [Compound 137] (Ac-SEFCI[Trp(1-Me)]QDWGEHRCTEGE[Aoc]EK([γGlu-Gly-γGlu-C18 diacid])-NH2; disulfide 4-14)	< 100 nM
CC[C@H](C)[C@@H]1NC(=O)[C@@H](NC(=O)[C@H](Cc2ccccc2)NC(=O)[C@H](CCC(=O)O)NC(=O)[C@H](CO)NC(C)=O)CSSC[C@@H](C(=O)N(C)CC(=O)N[C@@H](CCC(=O)O)C(=O)NCC(=O)N[C@@H](CCC(=O)O)C(=O)NCCOCCOCC(=O)N[C@@H](CCCCNC(=O)CC[C@H](NC(=O)CNC(=O)CC[C@H](NC(=O)CCCCCCCCCCCCCCCCC(=O)O)C(=O)O)C(=O)O)C(N)=O)NC(=O)[C@H](CCCNC(=N)N)NC(=O)[C@H](Cc2c[nH]cn2)NC(=O)[C@H](CCC(=O)O)NC(=O)CNC(=O)[C@H](Cc2c[nH]c3ccccc23)NC(=O)[C@H](CC(=O)O)NC(=O)[C@H](CCC(N)=O)NC(=O)[C@H](Cc2cn(C)c3ccccc23)NC1=O [Compound 138] (Ac-SEFCI[Trp(1-Me)]QDWGEHRC[Sar]EGE[AEEA]K([γGlu-Gly-γGlu-C18 diacid])-NH2; disulfide 4-14)	< 100 nM
CC[C@H](C)[C@@H]1NC(=O)[C@@H](NC(=O)[C@H](Cc2ccccc2)NC(=O)[C@H](CCC(=O)O)NC(=O)[C@H](CO)NC(C)=O)CSSC[C@@H](C(=O)N(C)CC(=O)N[C@@H](CCC(=O)O)C(=O)NCC(=O)N[C@@H](CCC(=O)O)C(=O)N[C@@H](CO)C(=O)N[C@@H](CCC(=O)O)C(=O)N[C@@H](CO)C(=O)N[C@@H](CCCCNC(=O)CC[C@H](NC(=O)CNC(=O)CC[C@H](NC(=O)CCCCCCCCCCCCCCCCC(=O)O)C(=O)O)C(=O)O)C(N)=O)NC(=O)[C@H](CCCNC(=N)N)NC(=O)[C@H](Cc2c[nH]cn2)NC(=O)[C@H](CCC(=O)O)NC(=O)CNC(=O)[C@H](Cc2c[nH]c3ccccc23)NC(=O)[C@H](CC(=O)O)NC(=O)[C@H](CCC(N)=O)NC(=O)[C@H](Cc2cn(C)c3ccccc23)NC1=O [Compound 139] (Ac-SEFCI[Trp(1-Me)]QDWGEHRC[Sar]EGESESK([γGlu-Gly-γGlu-C18 diacid])-NH2; disulfide 4-14)	< 100 nM
